In general, IC50 refers to the concentration at which inhibition is half-maximal.

Chain of SUV420H1 enzyme (Q4FZB7 whole entry): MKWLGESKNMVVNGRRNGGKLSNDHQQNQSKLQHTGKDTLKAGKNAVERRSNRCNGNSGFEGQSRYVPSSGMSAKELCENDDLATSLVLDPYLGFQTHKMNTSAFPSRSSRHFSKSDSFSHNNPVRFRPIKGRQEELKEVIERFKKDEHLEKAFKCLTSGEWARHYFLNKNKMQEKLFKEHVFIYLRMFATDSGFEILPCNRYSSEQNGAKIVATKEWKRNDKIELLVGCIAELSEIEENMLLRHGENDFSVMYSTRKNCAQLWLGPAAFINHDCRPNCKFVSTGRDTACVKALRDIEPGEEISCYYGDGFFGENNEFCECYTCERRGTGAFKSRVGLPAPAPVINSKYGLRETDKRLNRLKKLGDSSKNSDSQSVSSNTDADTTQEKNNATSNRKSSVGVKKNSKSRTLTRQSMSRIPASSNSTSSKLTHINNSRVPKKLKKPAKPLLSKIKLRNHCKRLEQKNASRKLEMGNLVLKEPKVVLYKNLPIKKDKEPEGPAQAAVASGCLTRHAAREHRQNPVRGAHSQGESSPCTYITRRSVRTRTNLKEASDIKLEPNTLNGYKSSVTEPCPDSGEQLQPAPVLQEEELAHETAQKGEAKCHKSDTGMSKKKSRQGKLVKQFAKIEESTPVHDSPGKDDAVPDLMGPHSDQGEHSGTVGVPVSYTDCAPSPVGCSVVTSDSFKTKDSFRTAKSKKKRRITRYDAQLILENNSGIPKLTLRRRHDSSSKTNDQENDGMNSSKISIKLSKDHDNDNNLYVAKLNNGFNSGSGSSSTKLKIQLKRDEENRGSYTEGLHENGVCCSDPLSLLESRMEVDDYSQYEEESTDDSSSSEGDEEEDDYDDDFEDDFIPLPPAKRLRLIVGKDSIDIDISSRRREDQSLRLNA

For the test, the target named is SUV420H1 enzyme (Homo sapiens, UniProt Q4FZB7). Put plainly: TR-FRET SAH SUV420H1 enzyme inhibition assay. The following applies: Histone Peptide H4(8-30)me1 and SAM, overnight at room temp, TR-FRET detection of SAH, read-out: TR-FRET SAH_SUV420H1 IC50. The class given is biochemical. The gist of the method:
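SUV420H1 (90 nM) preincubated 30 min with compound (3-fold dilutions, 50 to 0.00075 μM), then H4(8-30)me1 peptide 5 nM and SAM 4 nM added, overnight at room temp. SAH product detected by TR-FRET with Tb anti-SAH antibody and Oregon Green-SAH in RIPA buffer, 4 h; IC50 from Hill fit, asymptotes fixed 0-100%.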
For orientation: In TR-FRET formats the signal depends on donor and acceptor labels being close together.
In the case of `Cn1cc(-c2cc(Cn3cnc4c(N)ncnc43)c3[nH]c(CN)cc3c2)cn1` [Example 18, 9-{[2-(aminomethyl)-5-(1-methyl-1H-pyrazol-4-yl)-1H-indol-7-yl]methyl}-9H-purin-6-amine], the IC50 was 561 nM.

Take `Nc1ncnc2c1ncn2Cc1cc(Cl)cc2cc(CNC(=O)c3ccc4[nH]ccc4c3)[nH]c12` [Example 357, N-({7-[(6-amino-9H-purin-9-yl)methyl]-5-chloro-1H-indol-2-yl}methyl)-1H-indole-5-carboxamide]: the concentration for half-maximal inhibition (IC50) is 12000 nM.

Regarding `Nc1ncnc2c1ncn2Cc1cc(Cl)cc2cc(CNC(=O)c3ccc4snnc4c3)[nH]c12` [Example 329, N-({7-[(6-amino-9H-purin-9-yl)methyl]-5-chloro-1H-indol-2-yl}methyl)-1,2,3-benzothiadiazole-5-carboxamide], the half-maximal inhibitory concentration (IC50) was 410 nM.

For `Nc1ncnc2c1ncn2Cc1cc(Cl)cc2cc(CNC(=O)CC3CC3)[nH]c12` [Example 110, N-({7-[(6-amino-9H-purin-9-yl)methyl]-5-chloro-1H-indol-2-yl}methyl)-2-cyclopropylacetamide], the concentration for half-maximal inhibition (IC50) was 10700 nM.

For `Cn1ccnc1-c1ccccc1C(=O)NCc1cc2cc(Cl)cc(Cn3cnc4c(N)ncnc43)c2[nH]1` [Example 327, N-({7-[(6-amino-9H-purin-9-yl)methyl]-5-chloro-1H-indol-2-yl}methyl)-2-(1-methyl-1H-imidazol-2-yl)benzamide], the concentration for half-maximal inhibition (IC50) stood at 5280 nM.

Take `Cc1noc(C)c1C(=O)NCc1cc2cc(-c3ccc(NS(C)(=O)=O)cc3)cc(Cn3cnc4c(N)ncnc43)c2[nH]1` [Example 174, N-[(7-[(6-amino-9H-purin-9-yl)methyl]-5-{4-[(methylsulfonyl)amino]phenyl}-1H-indol-2-yl)methyl]-3,5-dimethyl-1,2-oxazole-4-carboxamide]: the concentration for half-maximal inhibition (IC50) was found to be 101 nM.

`Nc1ncnc2c1ncn2Cc1cc(Cl)cc2cc(CNC(=O)c3ccc4nc[nH]c4n3)[nH]c12` [Example 330, N-({7-[(6-amino-9H-purin-9-yl)methyl]-5-chloro-1H-indol-2-yl}methyl)-3H-imidazo[4,5-b]pyridine-5-carboxamide]: the IC50 worked out at 1060 nM.

Regarding `CN1CCN(Cc2ccc(-c3cc(Cn4cnc5c(N)ncnc54)c4[nH]c(CN)cc4c3)cc2)CC1` [Example 54, 9-{[2-(aminomethyl)-5-{4-[(4-methylpiperazin-1-yl)methyl]phenyl}-1H-indol-7-yl]methyl}-9H-purin-6-amine], the IC50 turned out to be 1180 nM.

As for “4-(aminomethyl)-N-({7-[(6-amino-9H-purin-9-yl)methyl]-5-(4,4-difluorocyclohexyl)-1H-indol-2-yl}methyl)-2-methylbenzamide [Example 301]”, the IC50 came out at 750 nM.

Turning to `Cc1noc(C)c1C(=O)NCc1cc2cc(-c3cccc(C(=O)NC4CC4)c3)cc(Cn3cnc4c(N)ncnc43)c2[nH]1` [Example 178, N-({7-[(6-amino-9H-purin-9-yl)methyl]-5-[3-(cyclopropylcarbamoyl)phenyl]-1H-indol-2-yl}methyl)-3,5-dimethyl-1,2-oxazole-4-carboxamide], the IC50 stood at 116 nM.

As to `Nc1ncnc2c1ncn2Cc1cc(Cl)cc2cc(CNC(=O)C3(O)CCC3)[nH]c12` [Example 112, N-({7-[(6-amino-9H-purin-9-yl)methyl]-5-chloro-1H-indol-2-yl}methyl)-1-hydroxycyclobutanecarboxamide], the IC50 was 32000 nM.

`Nc1ncnc2c1ncn2Cc1cc(Cl)cc2cc(CNC(=O)c3ccc4occc4c3)[nH]c12` [Example 355, N-({7-[(6-amino-9H-purin-9-yl)methyl]-5-chloro-1H-indol-2-yl}methyl)-1-benzofuran-5-carboxamide]: the IC50 came to 4870 nM.

With `Cc1noc(C)c1C(=O)NCc1cc2cc(C3=CCCNC3)cc(Cn3cnc4c(N)ncnc43)c2[nH]1` [Example 163, N-({7-[(6-amino-9H-purin-9-yl)methyl]-5-(1,2,5,6-tetrahydropyridin-3-yl)-1H-indol-2-yl}methyl)-3,5-dimethyl-1,2-oxazole-4-carboxamide], the IC50 is 127 nM.

On to `NCc1cc2ccc(-c3ccccc3)c(Cn3cnc4c(N)ncnc43)c2[nH]1` [Example 61, 9-{[2-(aminomethyl)-6-phenyl-1H-indol-7-yl]methyl}-9H-purin-6-amine], for which the half-inhibitory concentration (IC50) turned out to be 20300 nM.

Turning to `Nc1ncnc2c1ncn2Cc1cc(Cl)cc2cc(CNC(=O)c3ccc4ocnc4c3)[nH]c12` [Example 339, N-({7-[(6-amino-9H-purin-9-yl)methyl]-5-chloro-1H-indol-2-yl}methyl)-1,3-benzoxazole-5-carboxamide], the half-maximal inhibitory concentration (IC50) stood at 6870 nM.

Consider `Cn1nccc1C(=O)NCc1cc2cc(Cl)cc(Cn3cnc4c(N)ncnc43)c2[nH]1` [Example 152, N-({7-[(6-amino-9H-purin-9-yl)methyl]-5-chloro-1H-indol-2-yl}methyl)-1-methyl-1H-pyrazole-5-carboxamide], for which the 50% inhibitory concentration (IC50) stood at 1080 nM.

Regarding `CC(=O)N1CC=C(c2cc(Cn3cnc4c(N)ncnc43)c3[nH]c(CNC(=O)c4cc(C)nnc4C)cc3c2)CC1` [Example 237, N-({5-(1-acetyl-1,2,3,6-tetrahydropyridin-4-yl)-7-[(6-amino-9H-purin-9-yl)methyl]-1H-indol-2-yl}methyl)-3,6-dimethylpyridazine-4-carboxamide], the IC50 came out at 28.8 nM.

Take `NCc1cc2cc(Cl)cc(Cn3cnc4c(N)ncnc43)c2[nH]1` [Example 9, 9-{[2-(aminomethyl)-5-chloro-1H-indol-7-yl]methyl}-9H-purin-6-amine]: the concentration for half-maximal inhibition (IC50) came to 1170 nM.

With `Nc1ncnc2c1ncn2Cc1cc(Cl)cc2cc(CNC(=O)c3cnoc3)[nH]c12` [Example 141, N-({7-[(6-amino-9H-purin-9-yl)methyl]-5-chloro-1H-indol-2-yl}methyl)-1,2-oxazole-4-carboxamide], the half-maximal inhibitory concentration (IC50) amounted to 783 nM.

For `CC(=O)N1CCC(c2cc(Cn3cnc4c(N)ncnc43)c3[nH]c(CN)cc3c2)CC1` [Example 17, 1-(4-{2-(aminomethyl)-7-[(6-amino-9H-purin-9-yl)methyl]-1H-indol-5-yl}piperidin-1-yl)ethanone], the 50% inhibitory concentration (IC50) is 635 nM.

With `Nc1ncnc2c1ncn2Cc1cc(Cl)cc2cc(CNC(=O)c3cncs3)[nH]c12` [Example 138, N-({7-[(6-amino-9H-purin-9-yl)methyl]-5-chloro-1H-indol-2-yl}methyl)-1,3-thiazole-5-carboxamide], the half-maximal inhibitory concentration (IC50) is 1640 nM.

For `Cn1nc(C(=O)NCc2cc3cc(Cl)cc(Cn4cnc5c(N)ncnc54)c3[nH]2)c2c1CCC2` [Example 191, N-({7-[(6-amino-9H-purin-9-yl)methyl]-5-chloro-1H-indol-2-yl}methyl)-1-methyl-1,4,5,6-tetrahydrocyclopenta[c]pyrazole-3-carboxamide], the IC50 amounted to 2980 nM.

For `COc1cscc1C(=O)NCc1cc2cc(Cl)cc(Cn3cnc4c(N)ncnc43)c2[nH]1` [Example 158, N-({7-[(6-amino-9H-purin-9-yl)methyl]-5-chloro-1H-indol-2-yl}methyl)-4-methoxythiophene-3-carboxamide], the IC50 came out at 4750 nM.

As to `Cc1cc(C(=O)NCc2cc3cc(Cl)cc(Cn4cnc5c(N)ncnc54)c3[nH]2)c(C)nn1` [Example 234, N-({7-[(6-amino-9H-purin-9-yl)methyl]-5-chloro-1H-indol-2-yl}methyl)-3,6-dimethylpyridazine-4-carboxamide], the half-inhibitory concentration (IC50) was found to be 60.6 nM.
